What is called EC50 is the concentration giving half of the maximal effect. High values mean weaker potency, low ones greater potency.

The target in the assay is human PD-L1 (Homo sapiens (Human), UniProt Q9NZQ7). Nature of the assay: T cell activation luciferase reporter cell culture system (T Cell Activation Assay). In kind it is cell-based. As to conditions: luciferase reporter assay; PD-L1 aAPC/CHO-K1 cells with PD-1 effector Jurkat T cells. For orientation: A reporter such as luciferase makes a cellular process visible.
Sequence of human PD-L1 (Q9NZQ7 19-290): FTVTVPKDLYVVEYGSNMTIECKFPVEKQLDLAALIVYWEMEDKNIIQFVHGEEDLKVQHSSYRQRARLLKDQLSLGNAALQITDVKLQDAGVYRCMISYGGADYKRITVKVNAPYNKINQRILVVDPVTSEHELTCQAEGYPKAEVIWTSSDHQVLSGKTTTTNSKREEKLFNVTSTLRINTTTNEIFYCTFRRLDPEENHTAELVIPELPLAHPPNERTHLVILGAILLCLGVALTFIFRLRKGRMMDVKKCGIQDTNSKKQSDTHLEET
`COc1nc(-c2cccc(-c3ccnc(-c4cc(OC)c5nc(CN6CC7(CCC(=O)N7)C6)cn5c4)c3Cl)c2Cl)ccc1CN1CC2(CCC(=O)N2)C1` [Example 454, 2-((6-(2-Chloro-3-(3-chloro-2-(8-methoxy-2-((6-oxo-2,5-diazaspiro[3.4]octan-2-yl)methyl)imidazo[1,2-a]pyridin-6-yl)pyridin-4-yl)phenyl)-2-methoxypyridin-3-yl)methyl)-2,5-diazaspiro[3.4]octan-6-one]: the EC50 stood at 203 nM. This counts as sub-micromolar.
The figure for `COc1nc(-c2cccc(-c3ccnc(-c4cc(OC)c5nc(CN6CC(C)(O)C6)cn5c4)c3Cl)c2Cl)ccc1CN1CC(C)(O)C1` [Example 455, 1-((6-(2-Chloro-3-(3-chloro-2-(2-((3-hydroxy-3-methylazetidin-1-yl)methyl)-8-methoxyimidazo[1,2-a]pyridin-6-yl)pyridin-4-yl)phenyl)-2-methoxypyridin-3-yl)methyl)-3-methylazetidin-3-ol] is 174 nM.
Consider `COc1cc(-c2nccc(-c3cccc(-c4ccc(CNC5CCN(C(=O)C6CCCCC6)CC5)c(OC)n4)c3Cl)c2Cl)ccc1CNC1CCN(C(=O)C2CCCCC2)CC1` [Example 456, (4-(((6-(2-Chloro-3-(3-chloro-2-(4-(((1-(cyclohexanecarbonyl)piperidin-4-yl)amino)methyl)-3-methoxyphenyl)pyridin-4-yl)phenyl)-2-methoxypyridin-3-yl)methyl)amino)piperidin-1-yl)(cyclohexyl)methanone], for which the midpoint of the response, the EC50, lay at 291 nM.
The figure for `COc1cc(-c2nccc(-c3cccc(-c4ccc(CN5CCNC(=O)C5)c(OC)n4)c3Cl)c2Cl)ccc1CN1CCNC(=O)C1` [Example 457, 4-((6-(2-Chloro-3-(3-chloro-2-(3-methoxy-4-((3-oxopiperazin-1-yl)methyl)phenyl)pyridin-4-yl)phenyl)-2-methoxypyridin-3-yl)methyl)piperazin-2-one] is no less than 10000 nM; for `COc1cc(-c2nccc(-c3cccc(-c4ccc(CNC5CCN(C(C)=O)CC5)c(OC)n4)c3Cl)c2Cl)ccc1CN1CCC(O)CC1` [Example 459, 1-(4-(((6-(2-Chloro-3-(3-chloro-2-(4-((4-hydroxypiperidin-1-yl)methyl)-3-methoxyphenyl)pyridin-4-yl)phenyl)-2-methoxypyridin-3-yl)methyl)amino)piperidin-1-yl)ethan-1-one] it is 33 nM.
The compound `COc1nc(-c2cccc(-c3ccnc(-c4cc5c(=O)n(CCNCC(=O)O)c(OC)nn5c4)c3Cl)c2Cl)ccc1CNC[C@@H]1CCC(=O)N1` [Example 460, (S)-(2-(6-(3-Chloro-4-(2-chloro-3-(6-methoxy-5-((((5-oxopyrrolidin-2-yl)methyl)amino)methyl)pyridin-2-yl)phenyl)pyridin-2-yl)-2-methoxy-4-oxopyrrolo[2,1-f][1,2,4]triazin-3(4H)-yl)ethyl)glycine] registered an EC50 of 96.5 nM. This EC50 lies about 2.9-fold higher than the previous one.
Compound `COc1cc(-c2nccc(-c3cccc(-c4ccc(CN5CCC(NC(C)=O)CC5)c(OC)n4)c3C)c2C)ccc1CN1CCC(NC(C)=O)CC1` [Example 461, N-(1-((6-(3-(2-(4-((4-Acetamidopiperidin-1-yl)methyl)-3-methoxyphenyl)-3-methylpyridin-4-yl)-2-methylphenyl)-2-methoxypyridin-3-yl)methyl)piperidin-4-yl)acetamide] yielded an EC50 of no less than 10000 nM.
The figure for `COc1cc(-c2nccc(-c3cccc(-c4ccc(CN[C@H]5CC[C@H](O)CC5)c(OC)n4)c3Cl)c2C)ccc1CN[C@H]1CC[C@H](O)CC1` [Example 463, (1r,4r)-4-(((6-(2-Chloro-3-(2-(4-((((1r,4r)-4-hydroxycyclohexyl)amino)methyl)-3-methoxyphenyl)-3-methylpyridin-4-yl)phenyl)-2-methoxypyridin-3-yl)methyl)amino)cyclohexan-1-ol] is 288 nM; for `COc1cc(-c2nccc(-c3cccc(-c4ccc(CN5CC6(COC6)C5)c(OC)n4)c3Cl)c2C)ccc1CN1CC2(COC2)C1` [Example 464, 6-(4-(4-(3-(5-((2-Oxa-6-azaspiro[3.3]heptan-6-yl)methyl)-6-methoxypyridin-2-yl)-2-chlorophenyl)-3-methylpyridin-2-yl)-2-methoxybenzyl)-2-oxa-6-azaspiro[3.3]heptane] it is 226 nM; for `COC(=O)N1CCC(NCc2ccc(-c3nccc(-c4cccc(-c5ccc(CNC6CCN(C(=O)OC)CC6)c(OC)n5)c4Cl)c3Cl)cc2OC)CC1` [Example 465, Methyl 4-(((6-(2-chloro-3-(3-chloro-2-(3-methoxy-4-(((1-(methoxycarbonyl)piperidin-4-yl)amino)methyl)phenyl)pyridin-4-yl)phenyl)-2-methoxypyridin-3-yl)methyl)amino)piperidine-1-carboxylate] it is 48.3 nM.
The same measure for `COc1cc(-c2nccc(-c3cccc(-c4ccc(CN5CCC(NC(C)=O)CC5)c(OC)n4)c3Cl)c2C)ccc1CN1CCC(NC(C)=O)CC1` [Example 466, N-(1-((6-(3-(2-(4-((4-Acetamidopiperidin-1-yl)methyl)-3-methoxyphenyl)-3-methylpyridin-4-yl)-2-chlorophenyl)-2-methoxypyridin-3-yl)methyl)piperidin-4-yl)acetamide]: no less than 10000 nM.
The figure for `COc1cc(-c2nccc(-c3cccc(-c4ccc(CN5CCC(NC(C)=O)CC5)c(OC)n4)c3C)c2Cl)ccc1CN1CCC(NC(C)=O)CC1` [Example 467, N-(1-((6-(3-(2-(4-((4-acetamidopiperidin-1-yl)methyl)-3-methoxyphenyl)-3-chloropyridin-4-yl)-2-methylphenyl)-2-methoxypyridin-3-yl)methyl)piperidin-4-yl)acetamide] is no less than 10000 nM.
As to `COc1cc(-c2nccc(-c3cccc(-c4ccc(CN(C)C5CCOCC5)c(OC)n4)c3Cl)c2Cl)ccc1CNC1CCOCC1` [Example 468, N-((6-(2-chloro-3-(3-chloro-2-(3-methoxy-4-(((tetrahydro-2H-pyran-4-yl)amino)methyl)phenyl)pyridin-4-yl)phenyl)-2-methoxypyridin-3-yl)methyl)-N-methyltetrahydro-2H-pyran-4-amine], the half-maximal effective concentration (EC50) was 97.1 nM.
The same measure for `COc1cc(-c2nccc(-c3cccc(-c4ccc(CN(C)C5CCN(C(C)=O)CC5)c(OC)n4)c3Cl)c2Cl)ccc1CNC1CCOCC1` [Example 469, 1-(4-(((6-(2-chloro-3-(3-chloro-2-(3-methoxy-4-(((tetrahydro-2H-pyran-4-yl)amino)methyl)phenyl)pyridin-4-yl)phenyl)-2-methoxypyridin-3-yl)methyl)(methyl)amino)piperidin-1-yl)ethan-1-one]: 79.3 nM.
As to `COc1cc(-c2nccc(-c3cccc(-c4ccc(CN(C)C[C@@H]5CCC(=O)N5)c(OC)n4)c3Cl)c2Cl)ccc1CN(C)C[C@@H]1CCC(=O)N1` [Example 472, (S)-5-((((6-(2-Chloro-3-(3-chloro-2-(3-methoxy-4-((methyl(((S)-5-oxopyrrolidin-2-yl)methyl)amino)methyl)phenyl)pyridin-4-yl)phenyl)-2-methoxypyridin-3-yl)methyl)(methyl)amino)methyl)pyrrolidin-2-one], the EC50 was found to be 31.7 nM.
`COc1nc(-c2cccc(-c3ccnc(-c4cc(OC)c5nc(CN6CCOCC6)cn5c4)c3Cl)c2Cl)ccc1CNC1CCN(C(C)=O)CC1` [Example 475, 1-(4-(((6-(2-Chloro-3-(3-chloro-2-(8-methoxy-2-(morpholinomethyl)imidazo[1,2-a]pyridin-6-yl)pyridin-4-yl)phenyl)-2-methoxypyridin-3-yl)methyl)amino)piperidin-1-yl)ethan-1-one] showed an EC50 of 3770 nM. Compared with the last compound, the EC50 is about 120-fold higher.
The same measure for `COc1nc(-c2cccc(-c3ccnc(-c4cc(OC)c5nc(CN6CCC(F)(F)C6)cn5c4)c3Cl)c2Cl)ccc1CNC1CCN(C(C)=O)CC1` [Example 476, 1-(4-(((6-(2-Chloro-3-(3-chloro-2-(2-((3,3-difluoropyrrolidin-1-yl)methyl)-8-methoxyimidazo[1,2-a]pyridin-6-yl)pyridin-4-yl)phenyl)-2-methoxypyridin-3-yl)methyl)amino)piperidin-1-yl)ethan-1-one]: no less than 10000 nM.
In turn, `COc1cc(-c2nccc(-c3cccc(-c4ccc(CNC5CCN(C(C)=O)CC5)c(OC)n4)c3Cl)c2Cl)ccc1CNCCN1CCNC(=O)C1` [Example 479, 4-(2-((4-(4-(3-(5-(((1-Acetylpiperidin-4-yl)amino)methyl)-6-methoxypyridin-2-yl)-2-chlorophenyl)-3-chloropyridin-2-yl)-2-methoxybenzyl)amino)ethyl)piperazin-2-one] gave an EC50 of 59.3 nM.
`COCC(=O)N1CCC(NCc2ccc(-c3cccc(-c4ccnc(-c5ccc(CNC6CCN(C(C)=O)CC6)c(OC)c5)c4Cl)c3Cl)nc2OC)CC1` [Example 481, 1-(4-(((6-(3-(2-(4-(((1-Acetylpiperidin-4-yl)amino)methyl)-3-methoxyphenyl)-3-chloropyridin-4-yl)-2-chlorophenyl)-2-methoxypyridin-3-yl)methyl)amino)piperidin-1-yl)-2-methoxyethan-1-one] yielded a concentration for a half-maximal effect (EC50) of 15.9 nM. Against the preceding compound, the EC50 is about 3.7-fold lower.
Compound `COc1cc(-c2nccc(-c3cccc(-c4ccc(CNC5CCN(C(C)=O)CC5)c(OC)n4)c3Cl)c2Cl)ccc1CN1CC2(C1)CN(C(C)=O)C2` [Example 482, 1-(4-(((6-(3-(2-(4-((6-acetyl-2,6-diazaspiro[3.3]heptan-2-yl)methyl)-3-methoxyphenyl)-3-chloropyridin-4-yl)-2-chlorophenyl)-2-methoxypyridin-3-yl)methyl)amino)piperidin-1-yl)ethan-1-one] returned an EC50 of 20.3 nM.
`COc1cc(-c2nccc(-c3cccc(-c4ccc(CNC5CCSCC5)c(OC)n4)c3Cl)c2Cl)ccc1CNC1CCSCC1` [Example 484, N-((6-(2-Chloro-3-(3-chloro-2-(3-methoxy-4-(((tetrahydro-2H-thiopyran-4-yl)amino)methyl)phenyl)pyridin-4-yl)phenyl)-2-methoxypyridin-3-yl)methyl)tetrahydro-2H-thiopyran-4-amine] gave an EC50 of 195 nM.
`COc1cc(-c2nccc(-c3cccc(-c4ccc(CN5CC6(CCN(C(C)=O)CC6)C5)c(OC)n4)c3Cl)c2Cl)ccc1CN1CC2(CCN(C(C)=O)CC2)C1` [Example 485, 1-(2-((6-(3-(2-(4-((7-Acetyl-2,7-diazaspiro[3.5]nonan-2-yl)methyl)-3-methoxyphenyl)-3-chloropyridin-4-yl)-2-chlorophenyl)-2-methoxypyridin-3-yl)methyl)-2,7-diazaspiro[3.5]nonan-7-yl)ethan-1-one]: the EC50 turned out to be 212 nM.

Values taken from patent US20240246964A1 (Arbutus Biopharma Corporation, priority 2021, published 2024).
